From patent US8476298B2 (Exelixis, Inc., priority 2003, dated 2013) come the findings set out here.

Read-outs that look alike come from different tables or passages of the source.

Experiment [1] has as its target c-Kit kinase (Homo sapiens, UniProt P10721). The experiment in a line: c-Kit AlphaScreen kinase assay.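 Also: c-Kit kinase phosphorylating biotinylated poly(Glu,Tyr), ATP near its KM, 1 h reaction at ambient temperature, AlphaScreen chemiluminescence with streptavidin donor and anti-phosphotyrosine acceptor beads, 10-point inhibitor titration.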 Format: biochemical.
Experiment [2] deals with T1, Flt-3 (baculovirus expressed human Flt-3 kinase domain R571-S993) (Homo sapiens, UniProt P36888).
T1 construct: human Flt-3 kinase domain R571-S993; host or cells: baculovirus expression
T1 sequence (P36888 571-993): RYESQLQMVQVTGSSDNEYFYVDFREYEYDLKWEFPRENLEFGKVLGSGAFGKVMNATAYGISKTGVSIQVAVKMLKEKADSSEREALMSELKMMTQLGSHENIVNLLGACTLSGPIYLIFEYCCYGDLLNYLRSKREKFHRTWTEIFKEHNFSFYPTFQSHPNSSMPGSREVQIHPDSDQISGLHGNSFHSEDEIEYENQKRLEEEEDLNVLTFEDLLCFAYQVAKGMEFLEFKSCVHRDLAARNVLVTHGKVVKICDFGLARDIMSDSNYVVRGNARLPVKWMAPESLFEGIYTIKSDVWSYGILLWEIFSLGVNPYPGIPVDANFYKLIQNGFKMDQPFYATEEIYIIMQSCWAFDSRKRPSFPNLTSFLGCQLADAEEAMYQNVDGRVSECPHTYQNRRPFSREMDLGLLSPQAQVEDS
The experiment in a line: biochemical. The settings on record: read-out: flt3 IC50.
Method: Kinase activity and compound inhibition are investigated using one or more of the three assay formats described below. The ATP concentrations for each assay are selected to be close to the Michaelis-Menten constant (KM) for each individual kinase. Dose-response experiments are performed at 10 different inhibitor concentrations in a 384-well plate format.
Biochemical activity for flt-3 was assessed using a Luciferase-Coupled Chemiluminescent Kinase assay (LCCA) format. Kinase activity was measured as the percent ATP remaining following the kinase reaction. Remaining ATP was detected by luciferase-luciferin-coupled chemiluminescence. […] The mixture is incubated at ambient temperature for 3 hours after which 20 uL luciferase-luciferin mix is added and the chemiluminescent signal read using a Wallac Victor^2 reader.

In experiment [3] the target is T2, Flt-4 (baculovirus expressed human Flt-4 kinase domain D725-R1298) (Homo sapiens, UniProt P35916).
T2 construct: human Flt-4 kinase domain D725-R1298; host or cells: baculovirus expression
Nature of the experiment: flt-4 Alphascreen Tyrosine Kinase assay.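 Also: AlphaScreen chemiluminescence read-out of biotinylated poly(Glu,Tyr) 4:1 phosphorylation via streptavidin donor and PY100 anti-phosphotyrosine acceptor beads, ATP near KM, 1 hr kinase reaction, 10-point dose-response.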 Format: biochemical. The settings on record: read-out: flt4 IC50.
Method: (§1) Kinase activity and compound inhibition are investigated using one or more of the three assay formats described below. The ATP concentrations for each assay are selected to be close to the Michaelis-Menten constant (KM) for each individual kinase. Dose-response experiments are performed at 10 different inhibitor concentrations in a 384-well plate format. […] Typically H is close to unity. c-Met Assay
Biochemical activity for flt-4 was assessed using an Alphascreen Tyrosine Kinase protocol. AlphaScreen™ (Perkin Elmer) technology is a proximity assay employing microparticles. Singlet oxygen derived from a donor bead following laser excitation results in chemiluminescence when in proximity (100 Å) to an acceptor bead due to biomolecular interactions. For the Flt-4 assay, donor beads coated with streptavidin and acceptor beads coated with PY100 anti-phosphotyrosine antibody were used (Perkin Elmer). Biotinylated poly(Glu,Tyr) 4:1 (Perkin Elmer) was used as the substrate. Substrate phosphorylation was measured by addition of donor/acceptor beads by chemiluminescence following donor-acceptor bead complex formation. […] Reaction mixtures were incubated for 1 hr at ambient temperature. […] After 2-16 hr incubation at ambient temperature plates were read using an AlphaQuest reader (Perkin Elmer).

Experiment [4] addresses T3, KDR (baculovirus expressed human KDR kinase domain D807-V1356) (Homo sapiens, UniProt P35968).
T3 construct: human KDR kinase domain D807-V1356; host or cells: baculovirus expression
Nature of the experiment: biochemical.

Experiment [5] concerns the target T4, c-Met (baculovirus expressed human c-Met kinase domain P948-S1343) (Homo sapiens, UniProt P08581).
T4 construct: human c-Met kinase domain P948-S1343; host or cells: baculovirus expression
The experiment in a line: c-Met Luciferase-Coupled Chemiluminescent Kinase assay (LCCA).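 Also: kinase activity read as percent ATP left after reaction, by luciferase-luciferin chemiluminescence, with 1 µM ATP and 1 µM poly-EY substrate, 2 h at ambient temperature, 10-point dose-response.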 Format: biochemical.
Method: as §1
c-Met biochemical activity was assessed using a Luciferase-Coupled Chemiluminescent Kinase assay (LCCA) format as described above. Again, kinase activity was measured as the percent ATP remaining following the kinase reaction. Remaining ATP was detected by luciferase-luciferin-coupled chemiluminescence. Specifically, the reaction was initiated by mixing test compounds, 1 μM ATP, 1 μM poly-EY and 10 nM c-Met (baculovirus expressed human c-Met kinase domain P948-S1343) in a 20 uL assay buffer (20 mM Tris-HCL pH7.5, 10 mM MgCl2, 0.02% Triton X-100, 100 mM DTT, 2 mM MnCu2). The mixture is incubated at ambient temperature for 2 hours after which 20 uL luciferase-luciferin mix is added and the chemiluminescent signal read using a Wallac Victor^2 reader.

Setting [6] is: Table 4, inhibition as IC50 class.
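For flt3 IC50 in this document: Luciferase-coupled chemiluminescent kinase assay, activity read as percent ATP left after a 3 h reaction at room temperature, ATP near KM, 10-point dose-response.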

T4 sequence (P08581 1011-1343 limits assumed): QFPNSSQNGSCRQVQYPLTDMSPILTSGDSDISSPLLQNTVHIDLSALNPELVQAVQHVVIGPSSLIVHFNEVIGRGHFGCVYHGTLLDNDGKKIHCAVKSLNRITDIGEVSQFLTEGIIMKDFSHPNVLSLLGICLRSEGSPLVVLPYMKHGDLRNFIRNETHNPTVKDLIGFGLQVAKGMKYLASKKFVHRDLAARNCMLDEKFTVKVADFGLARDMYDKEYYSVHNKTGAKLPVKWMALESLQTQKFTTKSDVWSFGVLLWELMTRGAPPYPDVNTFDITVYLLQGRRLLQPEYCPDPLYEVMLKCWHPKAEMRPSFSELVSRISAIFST
T2 sequence (P35916 725-1298 isoform P35916-1): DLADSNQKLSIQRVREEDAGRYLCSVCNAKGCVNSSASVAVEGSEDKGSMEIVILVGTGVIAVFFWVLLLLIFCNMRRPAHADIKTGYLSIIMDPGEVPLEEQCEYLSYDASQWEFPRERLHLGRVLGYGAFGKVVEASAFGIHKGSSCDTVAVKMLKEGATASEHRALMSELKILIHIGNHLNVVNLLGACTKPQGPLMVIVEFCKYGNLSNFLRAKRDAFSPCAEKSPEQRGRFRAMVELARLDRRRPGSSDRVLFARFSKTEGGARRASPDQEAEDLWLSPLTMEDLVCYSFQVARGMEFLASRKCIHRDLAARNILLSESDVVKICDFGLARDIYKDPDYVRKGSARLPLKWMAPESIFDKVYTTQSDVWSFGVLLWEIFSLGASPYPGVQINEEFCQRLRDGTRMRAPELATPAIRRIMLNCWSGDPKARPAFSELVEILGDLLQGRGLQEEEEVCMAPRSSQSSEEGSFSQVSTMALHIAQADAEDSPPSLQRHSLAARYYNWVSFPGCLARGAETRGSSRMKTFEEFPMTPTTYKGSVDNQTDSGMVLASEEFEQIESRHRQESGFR
T3 sequence (P35968 807-1356): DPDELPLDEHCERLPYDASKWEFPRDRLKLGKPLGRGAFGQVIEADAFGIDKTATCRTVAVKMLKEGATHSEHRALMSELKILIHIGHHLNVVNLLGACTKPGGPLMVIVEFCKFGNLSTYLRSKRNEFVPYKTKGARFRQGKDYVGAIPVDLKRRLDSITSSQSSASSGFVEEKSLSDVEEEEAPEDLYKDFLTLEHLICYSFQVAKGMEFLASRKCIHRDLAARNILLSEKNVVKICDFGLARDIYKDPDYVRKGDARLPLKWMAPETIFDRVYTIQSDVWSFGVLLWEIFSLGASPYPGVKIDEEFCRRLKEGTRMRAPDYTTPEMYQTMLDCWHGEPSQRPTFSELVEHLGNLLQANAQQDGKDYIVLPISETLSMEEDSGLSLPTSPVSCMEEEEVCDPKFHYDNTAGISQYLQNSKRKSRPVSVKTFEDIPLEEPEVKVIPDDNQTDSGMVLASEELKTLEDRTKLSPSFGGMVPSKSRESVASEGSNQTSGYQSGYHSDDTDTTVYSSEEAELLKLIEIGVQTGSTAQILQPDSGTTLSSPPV
Sequence of c-Kit kinase (P10721 26-976): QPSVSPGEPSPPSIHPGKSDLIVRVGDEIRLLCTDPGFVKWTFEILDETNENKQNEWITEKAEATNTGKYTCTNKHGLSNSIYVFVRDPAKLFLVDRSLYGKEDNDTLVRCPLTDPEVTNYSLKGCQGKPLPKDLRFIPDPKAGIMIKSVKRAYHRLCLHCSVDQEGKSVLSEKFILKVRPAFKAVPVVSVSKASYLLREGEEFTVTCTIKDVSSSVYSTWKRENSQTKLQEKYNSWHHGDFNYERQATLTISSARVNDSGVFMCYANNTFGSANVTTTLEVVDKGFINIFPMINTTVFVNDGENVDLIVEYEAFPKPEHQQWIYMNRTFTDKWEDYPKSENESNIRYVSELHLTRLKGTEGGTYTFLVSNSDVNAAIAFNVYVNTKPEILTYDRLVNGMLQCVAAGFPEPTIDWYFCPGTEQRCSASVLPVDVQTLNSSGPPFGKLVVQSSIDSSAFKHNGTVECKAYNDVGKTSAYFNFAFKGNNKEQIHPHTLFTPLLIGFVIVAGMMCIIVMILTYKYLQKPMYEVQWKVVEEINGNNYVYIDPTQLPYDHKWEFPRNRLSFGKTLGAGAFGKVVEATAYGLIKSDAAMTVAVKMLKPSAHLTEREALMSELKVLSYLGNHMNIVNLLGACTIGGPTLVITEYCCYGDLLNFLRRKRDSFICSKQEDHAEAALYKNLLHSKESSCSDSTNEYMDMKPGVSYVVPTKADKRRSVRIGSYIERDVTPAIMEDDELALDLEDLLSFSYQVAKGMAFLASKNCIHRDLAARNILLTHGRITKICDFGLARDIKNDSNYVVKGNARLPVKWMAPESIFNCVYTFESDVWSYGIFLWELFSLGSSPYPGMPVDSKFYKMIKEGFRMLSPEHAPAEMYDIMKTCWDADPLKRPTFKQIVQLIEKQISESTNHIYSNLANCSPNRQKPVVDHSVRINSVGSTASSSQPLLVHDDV

Consider `COc1cc2c(Oc3ccc(NC(=O)C(=O)NCc4ccccc4Cl)cc3F)ccnc2cc1OCC1CCNCC1` [Example 245, N-[(2-chlorophenyl)methyl]-N′-[3-fluoro-4-({6-(methyloxy)-7-[(piperidin-4-ylmethyl)oxy]quinolin-4-yl}oxy)phenyl]ethanediamide], for which the half-maximal inhibitory concentration (IC50) in experiment [1] (setting [6]), in experiment [2] (setting [6]), in experiment [3] (setting [6]), in experiment [4] (setting [6]) and in experiment [5] (setting [6]) was under 50 nM each time.

Turning to `COc1cc2c(Oc3ccc(NC(=O)C(=O)Nc4ccccc4)cc3F)ccnc2cc1OCC1CCN(C)CC1` [Example 259, N-{3-fluoro-4-[(6-(methyloxy)-7-{[(1-methylpiperidin-4-yl)methyl]oxy}quinolin-4-yl)oxy]phenyl}-N′-phenylethanediamide], the IC50 – broadly, the concentration that inhibits the measured activity by half – was 500 to 5000 nM in experiment [1] (setting [6]); 500 to 5000 nM in experiment [2] (setting [6]); 50 to 500 nM in experiment [3] (setting [6]); 50 to 500 nM in experiment [4] (setting [6]); under 50 nM in experiment [5] (setting [6]).

On to `COc1cc2nccc(Oc3ncc(NC(=O)C4(C(=O)NCc5ccccc5)CC4)cc3Cl)c2cc1OC` [Example 301, N-(6-{[6,7-bis(methyloxy)quinolin-4-yl]oxy}-5-chloropyridin-3-yl)-N′-(phenylmethyl)cyclopropane-1,1-dicarboxamide], for which the IC50 in experiment [1] was 50 to 500 nM; in experiment [2] it was 50 to 500 nM; in experiment [3] it was 50 to 500 nM; in experiment [4], 500 to 5000 nM; in experiment [5] it was under 50 nM.

For the compound `COc1ccccc1CNC(=O)C(=O)Nc1ccc(Oc2ccnc3cc(OCC4CCNCC4)c(OC)cc23)c(F)c1` [Example 241, N-[3-fluoro-4-({6-(methyloxy)-7-[(piperidin-4-ylmethyl)oxy]quinolin-4-yl}oxy)phenyl]-N′-{[2-(methyloxy)phenyl]methyl}ethanediamide], the IC50 in experiment [1] (setting [6]), in experiment [2] (setting [6]), in experiment [3] (setting [6]), in experiment [4] (setting [6]) and in experiment [5] (setting [6]) was under 50 nM throughout.

Consider `COc1cc2c(Oc3ccc(NC(=O)C(=O)NCc4cccc(C(F)(F)F)c4)cc3F)ccnc2cc1OCC1CCNCC1` [Example 239, N-[3-fluoro-4-({6-(methyloxy)-7-[(piperidin-4-ylmethyl)oxy]quinolin-4-yl}oxy)phenyl]-N′-{[3-(trifluoromethyl)phenyl]methyl}ethanediamide], for which the IC50 in experiment [1] (setting [6]) was under 50 nM; in experiment [2] (setting [6]) it was under 50 nM; in experiment [3] (setting [6]) it was 50 to 500 nM; in experiment [4] (setting [6]) it was under 50 nM; in experiment [5] (setting [6]), under 50 nM.

Regarding `COc1cc2ncnc(Oc3ccc(NC(=O)C4(C(=O)Nc5ccc(F)cc5)CC4)cc3)c2cc1OC` [Example 310, N-(4-{[6,7-bis(methyloxy)quinazolin-4-yl]oxy}phenyl)-N′-(4-fluorophenyl)cyclopropane-1,1-dicarboxamide], the IC50 in experiment [1], in experiment [2], in experiment [3], in experiment [4] and in experiment [5] was under 50 nM each time.

For `COc1cc2c(Oc3ccc(NC(=O)[C@@]4(C(=O)Nc5ccc(F)cc5)C[C@H]4C)cc3F)ccnc2cc1OCCCN1CCOCC1` [Example 342, (1S,2R)-N-[3-fluoro-4-({6-(methyloxy)-7-[(3-morpholin-4-ylpropyl)oxy]quinolin-4-yl}oxy)phenyl]-N′-(4-fluorophenyl)-2-methylcyclopropane-1,1-dicarboxamide], the IC50 in experiment [1] is 50 to 500 nM; in experiment [2] it was under 50 nM; in experiment [3], under 50 nM; in experiment [4] it was under 50 nM; in experiment [5], under 50 nM.

Regarding `COc1cc2c(Oc3ccc(NC(=O)C(=O)N[C@@H](Cc4ccccc4)C(=O)N4CCCC4)cc3F)ccnc2cc1OCC1CCNCC1` [Example 284, N-[3-fluoro-4-({6-(methyloxy)-7-[(piperidin-4-ylmethyl)oxy]quinolin-4-yl}oxy)phenyl]-N′-[(1S)-2-oxo-1-(phenylmethyl)-2-pyrrolidin-1-ylethyl]ethanediamide], the IC50 is 50 to 500 nM in experiment [1]; 50 to 500 nM in experiment [2]; 500 to 5000 nM in experiment [3]; 500 to 5000 nM in experiment [4]; under 50 nM in experiment [5].

In the case of `COc1cc2c(Oc3ccc(NC(=O)C(=O)NCc4ccc(F)c(F)c4)cc3F)ccnc2cc1OCC1CCNCC1` [Example 256, N-[(3,4-difluorophenyl)methyl]-N′-[3-fluoro-4-({6-(methyloxy)-7-[(piperidin-4-ylmethyl)oxy]quinolin-4-yl}oxy)phenyl]ethanediamide], the IC50 is under 50 nM in experiment [1] (setting [6]); 50 to 500 nM in experiment [2] (setting [6]); under 50 nM in experiment [3] (setting [6]); under 50 nM in experiment [4] (setting [6]); under 50 nM in experiment [5] (setting [6]).

For the compound `COc1cc2c(Oc3ccc(NC(=O)C(=O)NCc4cc(C(F)(F)F)ccc4Cl)cc3F)ccnc2cc1OCC1CCNCC1` [Example 234, N-{[2-chloro-5-(trifluoromethyl)phenyl]methyl}-N′-[3-fluoro-4-({6-(methyloxy)-7-[(piperidin-4-ylmethyl)oxy]quinolin-4-yl}oxy)phenyl]ethanediamide], the IC50 in experiment [1] (setting [6]) was 50 to 500 nM; in experiment [2] (setting [6]) it was under 50 nM; in experiment [3] (setting [6]) it was 50 to 500 nM; in experiment [4] (setting [6]), under 50 nM; in experiment [5] (setting [6]), under 50 nM.

Turning to `COc1cc2c(Oc3ccc(NC(=O)C(=O)NCc4ccc(F)c(C(F)(F)F)c4)cc3F)ccnc2cc1OCC1CCNCC1` [Example 216, N-[3-fluoro-4-({6-(methyloxy)-7-[(piperidin-4-ylmethyl)oxy]quinolin-4-yl}oxy)phenyl]-N′-{[4-fluoro-3-(trifluoromethyl)phenyl]methyl}ethanediamide], the IC50 in experiment [1] (setting [6]) is 50 to 500 nM; in experiment [2] (setting [6]) it was under 50 nM; in experiment [3] (setting [6]), under 50 nM; in experiment [4] (setting [6]), under 50 nM; in experiment [5] (setting [6]) it was under 50 nM.

Regarding `COc1cc2c(Oc3ccc(NC(=O)C(=O)NCCc4ccc(C)cc4)cc3F)ccnc2cc1OCC1CCNCC1` [Example 271, N-[3-fluoro-4-({6-(methyloxy)-7-[(piperidin-4-ylmethyl)oxy]quinolin-4-yl}oxy)phenyl]-N′-[2-(4-methylphenyl)ethyl]ethanediamide], the 50% inhibitory concentration (IC50) in experiment [1] (setting [6]) is 50 to 500 nM; in experiment [2] (setting [6]), under 50 nM; in experiment [3] (setting [6]), 50 to 500 nM; in experiment [4] (setting [6]), 50 to 500 nM; in experiment [5] (setting [6]), under 50 nM.

For `COc1cc2c(Oc3ccc(NC(=O)C(=O)NC4CCCC4)cc3F)ccnc2cc1OCC1CCNCC1` [Example 220, N-cyclopentyl-N′-[3-fluoro-4-({6-(methyloxy)-7-[(piperidin-4-ylmethyl)oxy]quinolin-4-yl}oxy)phenyl]ethanediamide], the IC50 in experiment [1] (setting [6]) is 50 to 500 nM; in experiment [2] (setting [6]), 50 to 500 nM; in experiment [3] (setting [6]), 50 to 500 nM; in experiment [4] (setting [6]) it was 50 to 500 nM; in experiment [5] (setting [6]), under 50 nM.

Regarding `COc1cc2c(Oc3ccc(NC(=O)C(=O)NCCc4ccc(F)cc4)cc3F)ccnc2cc1OCC1CCN(C)CC1` [Example 258, N-{3-fluoro-4-[(6-(methyloxy)-7-{[(1-methylpiperidin-4-yl)methyl]oxy}quinolin-4-yl)oxy]phenyl}-N′-[2-(4-fluorophenyl)ethyl]ethanediamide], the IC50 in experiment [1] (setting [6]), in experiment [2] (setting [6]), in experiment [3] (setting [6]), in experiment [4] (setting [6]) and in experiment [5] (setting [6]) was under 50 nM each time.

Consider `COc1cc2c(Oc3ccc(NC(=O)C(=O)NCCc4ccc(N)cc4)cc3F)ccnc2cc1OCC1CCNCC1` [Example 286, N-[2-(4-aminophenyl)ethyl]-N′-[3-fluoro-4-({6-(methyloxy)-7-[(piperidin-4-ylmethyl)oxy]quinolin-4-yl}oxy)phenyl]ethanediamide], for which the IC50 in experiment [1] was 50 to 500 nM; in experiment [2] it was 50 to 500 nM; in experiment [3], 50 to 500 nM; in experiment [4], 50 to 500 nM; in experiment [5], under 50 nM.

With `COc1cc2c(Oc3ccc(NC(=O)C4(C(=O)Nc5ccc(F)cc5)CC4)cc3F)ccnc2cc1OCCCN1CCN(C)CC1` [Example 333, N-{3-fluoro-4-[(6-(methyloxy)-7-{[3-(4-methylpiperazin-1-yl)propyl]oxy}quinolin-4-yl)oxy]phenyl}-N′-(4-fluorophenyl)cyclopropane-1,1-dicarboxamide], the IC50 in experiment [1], in experiment [2], in experiment [3], in experiment [4] and in experiment [5] was under 50 nM in each case.

With `COc1cc2c(Oc3ccc(NC(=O)C(=O)NCc4cccc(Cl)c4)cc3F)ccnc2cc1OCC1CCNCC1` [Example 243, N-[(3-chlorophenyl)methyl]-N′-[3-fluoro-4-({6-(methyloxy)-7-[(piperidin-4-ylmethyl)oxy]quinolin-4-yl}oxy)phenyl]ethanediamide], the IC50 is under 50 nM in experiment [1] (setting [6]); 50 to 500 nM in experiment [2] (setting [6]); 50 to 500 nM in experiment [3] (setting [6]); under 50 nM in experiment [4] (setting [6]); under 50 nM in experiment [5] (setting [6]).
